These results are taken from publication PMC5672024, “Selective Glucocorticoid Receptor Properties of GSK866 Analogs with Cysteine Reactive Warheads” (Frontiers in Immunology, 2017).

The subject of one test is GR. Briefly: Cell-based GR ligand-binding competition assay with [3H]-dexamethasone. Particulars: from IC50 values of ligand displacement assays; ref [14].
Test [1] relates to GR transactivation, p(GRE)2-50-luc reporter in HaCat cells. Briefly: p(GRE)2-50-luc reporter gene assay (GR transactivation). The format is cell-based. The following applies: 6 h, 10 nM. As for the experimental part:
(§1) In order to compare transactivation and transrepression potencies of the different synthesized GSK866 analogs, we performed GRE- and NFκB-luciferase-dependent reporter gene studies in stable transfected cell lines, as previously described ([3], [8]). HaCat cells expressing p(GRE)2 50-Luc and L929sA cells expressing p(GRE)250-Luc or p(NFκB)350-Luc were cultured in DMEM medium with 1% L-glutamine, supplemented with 10% feral bovine serum (FBS), 100 µg/ml streptomycin, and 100 IU/mL penicillin in a humidified 5% CO2 atmosphere. Cells were passaged every 2 days at a dilution of 1:6. Reporter gene cells were plated at a density of 0.5 × 10^5 cells/well in 24 well plates and grown overnight. p(GRE)250-Luc-dependent reporter gene cells were treated with solvent (DMSO) or compound (100 fM, 1 nM, 10 nM, 100 nM, and 1 µM) for 6 h, whereas in case of p(NFκB)350-Luc, TNF (2,500 IU/mL) was added 2 h following compound treatment. After incubation with the compounds, medium was removed and cells were washed twice with PBS followed by adding 100 µl of 1× lysis buffer (0.2 M K2HPO4, 0.2 M KH2PO4, Triton X-100, pH 7.6). 25 µl of lysate was assayed for luciferase activity by adding 50 µl of luciferase assay substrate (1 mM luciferin or luciferin salt, 3 mM ATP, and 15 mM MgSO4 in 30 mM HEPES buffer, pH 7.8) followed by 10 s mixing and measuring 1 s bioluminescence using an Envision multilabel reader (Perkin Elmer).
(§2) Figure 3 Selective glucocorticoid receptor agonist GSK866 analogs UAMC-1217, UAMC-1218 but not UAMC-1158 and UAMC-1159 elicit selective glucocorticoid receptor-transactivation and NFκB-transrepression properties. Glucocorticoid response element (GRE)- and NFκB-luciferase-dependent reporter gene assays were performed in L929sA and HaCat reporter cells which were stably transfected with, respectively, p(NFκB)3-50luc or p(GRE)2-50-luc constructs. For p(GRE)2-50-luc reporter assays, cells were solvent-treated or induced with different concentrations of Dex (A), Dex-mesylate (Dex-Mes) (A), SEGRA GSK866 (C) or analogs UAMC-1158 (D), UAMC-1159 (E), UAMC-1217 (F), and UAMC-1218 (G) as indicated for a total exposure time of 6 h, whereas cells were cotreated for TNF (2,500 IU/ml) in the last 4 h for p(NFkB)3-50luc reporter assays (B–G). Corresponding lysates were assayed for luciferase activities and normalized for protein content as described in the Section “Materials and Methods.” Promoter activities are expressed as relative induction factor (± standard deviation) i.e., the ratio of expression levels recorded either at induced and non-induced conditions, with the latter taken to be 1.

In test [2] the test system is TNF-induced NFκB reporter gene activity in L929sA cells. Briefly: p(NFκB)3-50luc reporter gene assay with TNF (NFκB transrepression). Type of test: cell-based. The following applies: TNF 2,500 IU/ml; for inhibition at 0.01 µM: L929sA, 10 nM compound. As for the experimental part:
as §1, §2
On the technique in general: Reporter assays use an easily measured gene product as a stand-in for the process of interest.

The subject of another test is GILZ/TSC22D3 mRNA. Briefly: qPCR of GR target gene GILZ/TSC22D3 in HaCat cells. Type of test: cell-based. The following applies: 6 h, 10, 100 or 1,000 nM, compared with Dex. As for the experimental part: qPCR was performed using the GoTaq qPCR Master Mix (Promega) according to manufacturer’s instructions. In short, a 25 µl reaction volume mix per sample was prepared containing 12.5 µl GoTaq qPCR Master Mix, 0.4 µM forward and reverse primer, and nuclease-free water. We used the Rotor-Gene Q qPCR machine of Qiagen with following PCR program: 95°C for 2 min, 40 cycli denaturation (95°C, 15 s) and annealing/extension (60°C, 30 s), and dissociation (60–95°C). […] Each sample was run in triplicate. The median value of the triplicates were taken to calculate the deltaCt-values using GAPDH as the normalization gene.
(A) QPCR assays was performed against the GR target gene GILZ/TSC22D3 in HaCat cells treated for 6 h with different concentrations 10, 100 or 1,000 nM Dex or UAMC-1217. Bar graph plot represents the relative mRNA levels of GILZ/TSC22D3 upon Dex or UAMC-1217 treatment. (B) QPCR assays was performed against the TNF-inducible inflammatory gene interleukin-6 (IL6) in HaCat cells treated for 6 h with different concentrations 10, 100, or 1,000 nM Dex or UAMC-1217 either or not, cotreated for the last 4 h with TNF (2,500 IU/ml) as indicated in panel (B). […] Significant mean differences versus control setups panel (A) or TNF treated setup panel (B) are marked as *** (P < 0.001), **(P < 0.01), * (P < 0.05) and were determined by one-way ANOVA (Dunnetts Posttest).
(In qPCR the cycle at which signal appears reflects the starting amount.)

The next test has as its system recombinant GR-LBD (hGR). Briefly: Mass spectrometry of tryptic peptides of recombinant GR-LBD after ligand incubation (covalent binding). The following applies: 2 h at 37°C, trypsin digestion, LC-MS/MS. The arrangement: species or system human.

Structures are written as SMILES.

Method for recombinant GR-LBD (hGR): Recombinant His6-MBP-mCaspase3 site-LBD-hGR was expressed in the Escherichia coli strain BL21codon + pICA2 that was transformed with the corresponding pLHM36LBD-hGR plasmid and in which expression was induced by Isopropyl β-D-1-thiogalactopyranoside (IPTG) under control of a pL-promotor. The transformed bacteria were grown in Luria Bertani medium supplemented with ampicillin (100 µg/ml) and kanamycin (50 µg/ml) overnight at 28°C before 1/100 inoculation in 12 × 0.5 l provided with Luria Bertani medium supplemented with ampicillin (100 µg/ml) and 1% glycerol in a shaker incubator. The cells were grown to an optical density at AU 600 nm of 0.65, transferred to 20°C and expression was induced by addition of 1 mM IPTG overnight. Cells were then harvested and frozen at −20°C. […] After thawing, the cells were re-suspended at 3 ml/g in cold 20 mM Tris-HCl pH 7.4, 200 mM NaCl, 1 mM EDTA, 1 tablet complete protease inhibitor cocktail from Roche/50 ml, and 10 mM β-mercaptoethanol. The cytoplasmic fraction was prepared by sonication of the cells on ice and isolated by centrifugation at 18,000 × g for 30 min. All further purification steps were conducted at 4°C. The clear supernatant was applied to an amylase column (BioLabs, XK26 × 20, 100 ml), equilibrated with 20 mM Tris–HCl pH 7.4, 200 mM NaCl, 1 mM EDTA, and 10 mM β-mercaptoethanol. The column was eluted with 20 mM Tris–HCl pH 7.4, 200 mM NaCl, 1 mM EDTA, 10 mM maltose, and 10 mM β-mercaptoethanol. […] Recombinant purified His-MBP-DEVD-GR-LBD fusion protein was dissolved at a concentration of 1 mg in 1.7 ml PBS buffer.
Each aliquot was incubated 2 h at 37°C. […] 120 µl of each sample was loaded onto a spin column and the flow-through was collected (1,500 × g, 2 min). Trypsin (5 µl of 20 mM stock solution) was added, and the samples were incubated 20 h at 37°C. Then, 0.1% FA (formic acid) (41.5 µl) and 20 mM TCEP in 0.1% FA (18.5 µl, 5.7 mg TCEP/ml) were added [final volume = 185 µl, final concentration TCEP = 2 mM, 1 µg material/2.5 μl], and the samples were subjected to LC–MS/MS analysis.
The obtained peptide mixtures were introduced onto an LC–MS/MS system; the Ultimate 3000 RSLC nano (Dionex, Amsterdam, The Netherlands) in-line connected to an LTQ-Orbitrap Velos (Thermo Fisher Scientific, Bremen, Germany). The sample mixture was loaded on a trapping column [made in-house, 100 µm internal diameter (I.D.) × 20 mm, 5 µm C18 beads (Reprosil-HD, Dr. Maisch)]. After back flushing from the trapping column, the sample was loaded on a reverse-phase column [made in-house, 75 µm I.D. × 150 mm, 5 µm C18 beads (Reprosil-HD, Dr. Maisch)].
The mass spectrometer was operated in data-dependent mode, automatically switching between MS and MS/MS acquisition for the 10 most abundant peaks in a given MS spectrum. […]

The inhibition is the drop in the measured response relative to a control, in per cent. Low readings indicate a weak effect, high ones a strong effect. With `CCN(C[C@@](O)(CNC(=O)c1cnn(-c2ccc(F)cc2)c1N)C(F)(F)F)C(=O)c1c(Cl)ccc(NC(=O)CCl)c1Cl` [UAMC-1217], the “fold lower GR-LBD affinity versus GSK866” value in the test on GR is “approx. 5 fold”. The “GR transactivation in GRE-luc reporter at 10 nM” value in test [1] was “significantly reduced GR transactivation to levels below transactivation observed with 10 nM of Dex”. Further, the inhibition at 0.01 µM in test [2] was about 95%. The “NFκB transrepression in NFκB-luc reporter” value in test [2] (dose range) is “dose-dependent NFκB-transrepression effects”. Moreover, in the test on GILZ/TSC22D3 mRNA, the “GILZ/TSC22D3 gene expression” value was “reduced transactivation effects”. The “Modifications: GR-LBD cysteine-containing peptide covalently bound” value is “Cys-622” with recombinant GR-LBD (hGR) and “Peptide 615–633 → C622” in the test on recombinant GR-LBD (hGR) (listed as 1217).

On to `C[C@@H]1C[C@H]2[C@@H]3CCC4=CC(=O)C=C[C@]4(C)[C@@]3(F)[C@@H](O)C[C@]2(C)[C@@]1(O)C(=O)CO` [Dex, Dexamethasone, reference compound], for which, in test [2], the inhibition at 0.01 µM is 40 to 45%.
